Measurements from patent US5164367A, “Method of using copper(II) containing compounds to accelerate wound healing” (ProCyte Corporation, priority 1990, dated 1992).

Assays:
[1] = test system: wound chambers in healing impaired rats (granulation tissue formation); test: Wound chamber model in cortisone acetate treated (healing impaired) rats, I.M. injection; format: in vivo
Protocol: (§1) The chambers were removed at day 15 and 29.
(§2) After implantation of the chambers, the rats were subsequently injected with Cortisone Acetate (10 mg I.M. daily, Cortone Acetate, Merck) to impair the healing response. After allowing for encapsulation of the chambers, the rats were injected I.M. (in the opposite leg from the cortisone injection) with 0.1 ml of either a saline solution containing 10 mg/ml of glycyl-L-histidyl-L-lysine:copper(II) (2:1 molar ratio) or saline.
as §2, with “containing 19” for “containing 10”, “of glycyl-L-histidyl-L-lysyl-valyl-phenylalanly-valine:copper(II)” for “of glycyl-L-histidyl-L-lysine:copper(II) (2:1 molar ratio)”
as §2, with “the copper(II) compounds listed at the dosage specified in Table 4,” for “either a saline solution containing 10 mg/ml of glycyl-L-histidyl-L-lysine:copper(II) (2:1 molar ratio)”

[2] = test system: wound chambers in rats (granulation tissue formation); test: Wound chamber model in rats, compounds injected directly into the wound chambers;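 also: compounds given as 0.2 ml injections into encapsulated wound chambers in rats on set days, chambers removed at day 15 or 29, contents measured per chamber versus saline-injected chambers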
[3] = test system: 15 mm full-thickness excision wound in mice; test: Full thickness defect model in mice, I.M. injection; format: in vivo
From the text: Following an acclimation period, mice are anesthetized with I.P. pentobarbital and prepped for surgery. The hair is plucked from a wide area of the mid-back. An ink stamp bearing a 15 mm diameter circle is used to mark the skin for subsequent full-thickness excision. Tissue is excised to the fascia underlying the paniculus carnosus muscle. Following excision, hemostasis is achieved through irrigation and the use of sterile gauze pads.
Mice received a first I.M. treatment of GHL-Cu following hemostasis, Day 0. Injections consisted of 0.1 mg of GHL-Cu in a volume of 0.1 ml. Mice used as controls received injections of saline. Injections were repeated on days 1, 2, 3, 6, 7, 8, 9, 10, and 13.
The residual wound surface area is measured on days 1, 7, 10 and 14. The final comparison is performed on Day 14. Table 5 below illustrates that I.M. injection of GHL-Cu resulted is an approximately 75% smaller residual wound size at 14 days.

[4] = test system: wound chambers in normal rats (granulation tissue formation); test: Subcutaneous stainless steel wound chamber model, I.M. injection, normal rats; format: in vivo
From the text: The subcutaneous implantation of stainless steel wound chambers in rats provides a model for the healing of open cavity wounds. This model in many ways mimics the early events in the formation of granulation tissue found in many types of wounds and surgical defects. Implantation of these chambers triggers a series of responses which reflect the series of phases involved in wound healing--fibrin clot formation, infiltration of white cells, collagen synthesis, and new blood vessel formation.
as §1
After allowing for encapsulation of the chambers, the rats were injected I.M. with 0.1 ml of either a saline solution containing 10 mg/ml glycyl-L-histidyl-L-lysine:copper(II) (2:1 molar ratio) or saline.

[5] = test system: 2.0x2.0 cm full thickness skin defects in pigs; test: Full thickness skin defects in pigs, I.M. injection, punch biopsy analysis; format: in vivo, domestic pigs; details: pig
Protocol: The systemic application of GHL-Cu increases the formation of granulation tissue in pigs. Two domestic pigs approximately 29-31 pounds, about 8 weeks old, were anesthetized with Ketamine (30 mg/Kg) and Rompum (5 mg/Kg). A series of full thickness skin defects measuring 2.0×2.0 cm were created on the backs of each pig and bandaged with gauze and adhesive tape. One pig was treated with I.M. injections of strerile saline and the other with a solution of GHL-Cu (30 mg/ml). Each pig received 1.0 ml injections of either the saline or GHL-Cu solution on days 0, 1, 2, 5, 6, 7, 8, 9, 12, and 13.
Punch biopsy samples were taken from the centers of the healing wounds on day 7 and day 12 and analyzed for the biochemical parameters of granulation tissue and described in Example 10.

[6] = Table 8 part A, 2.0 mg/injection, saline control 4.5 ± 1.0
[7] = Table 8 part A, 2.0 mg/injection, saline control 49 ± 9
[8] = Table 8 part A, 2.0 mg/injection, saline control 75 ± 11
[9] = Table 8 part A, 2.0 mg/injection, saline control 703 ± 244
[10] = healing impaired (cortisone) rats, 0.3 mg/injection, saline control 502 ± 145
[11] = cortisone treated rats, 0.1 ml of 10 mg/ml

Compound: O=S(=O)([O-])[O-].[Cu+2] [CuSO4, cupric sulfate]
- COLLAGEN ([1]; healing impaired (cortisone) rats, 0.2 mg/injection, saline control 502 ± 145): 976 ± 343 μg HP/chamber

Compound: alanylL-histidyl-L-lysine:copper(II) [AHL:Cu]
- ANGIOGENESIS [2, 6]: 10.2 ± 6.5 Units AP/chamber
- PROTEIN [2, 7]: 46 ± 14 mg/chamber
- WET WEIGHT [2, 8]: 74 ± 22 mg
- COLLAGEN [2, 9]: 1565 ± 520 μg HP/chamber

Compound: carnosine:copper(II) [CARN:Cu]
- COLLAGEN [1, 10]: 832 ± 174 μg HP/chamber

Compound: citrate:copper(II) [CITRATE:Cu]
- COLLAGEN ([1]; healing impaired (cortisone) rats, 0.5 mg/injection, saline control 502 ± 145): 976 ± 343 μg HP/chamber

Compound: glycyl-L-histidyl-L-lysine:copper(II) [GHL:Cu]
- RESIDUAL WOUND SURFACE AREA DAY 14 ([3]; 0.1 mg in 0.1 ml per injection, saline control 1.78 ± 2.56): 0.42 ± 0.60 SQ MM
- smaller residual wound size at 14 days vs saline ([3]; 0.1 mg per injection, day 14): approximately 75%
- healing response in healing impaired animals relative to normal animals [1, 11]: increased the healing response in the healing impaired animals to the level found in the normal animals
- level of all the biochemical parameters examined compared to control animals [1, 11]: increased
- ANGIOGENESIS ([1]; healing impaired (cortisone) rats, 1.0 mg/injection, saline control 0.5 ± 0.3): 1.5 ± 1.6 Units AP/chamber
- PROTEIN ([1]; healing impaired (cortisone) rats, 1.0 mg/injection, saline control 11 ± 8): 25 ± 9 mg/chamber
- DRY WEIGHT ([1]; healing impaired (cortisone) rats, 1.0 mg/injection, saline control 20 ± 12): 35 ± 13 mg
- COLLAGEN ([1]; healing impaired (cortisone) rats, 1.0 mg/injection, saline control 187 ± 101): 366 ± 74 μg HP/chamber
- ANGIOGENESIS ([4]; 1.0 mg/injection, saline control 2.2 ± 1.1): 3.0 ± 1.5 Units AP/chamber
- PROTEIN ([4]; 1.0 mg/injection, saline control 36 ± 13): 55 ± 19 mg/chamber
- DRY WEIGHT ([4]; 1.0 mg/injection, saline control 51 ± 15): 75 ± 25 mg
- COLLAGEN ([4]; 1.0 mg/injection, saline control 376 ± 86): 1273 ± 711 μg HP/chamber
- biochemical healing parameters (vs saline) ([4]; 0.1 ml of 10 mg/ml): significantly increased
- WET WEIGHT ([5]; 30 mg/injection, punch biopsies (day 7 and day 12), saline control 121 ± 7): 148 ± 11 mg
- ANGIOGENESIS ([5]; 30 mg/injection, punch biopsies, saline control 0.4 ± 0.1): 2.2 ± 1.2 Units AP/chamber
- COLLAGEN ([5]; 30 mg/injection, punch biopsies, saline control 628 ± 182): 855 ± 20 μg HP/chamber
- visual examination of granulation tissue level ([5]; 30 mg/injection, saline treated animal: level below the skin): raised above the level of the surrounding skin
- weight, collagen content, and angiogenesis in the biopsies ([5]; 1.0 ml of 30 mg/ml per injection): significant increase

Compound: glycyl-L-histidyl-L-lysyl-L-valyl-L-phenylalanyl-L-valine:copper(II) [GHLVFV:Cu]
- ANGIOGENESIS ([1]; cortisone treated rats, 1.9 mg/injection, saline control 1.9 ± 0.4): 6.9 ± 6.1 Units AP/chamber
- PROTEIN ([1]; cortisone treated rats, 1.9 mg/injection, saline control 32 ± 4): 45 ± 15 mg/chamber
- DRY WEIGHT ([1]; cortisone treated rats, 1.9 mg/injection, saline control 65 ± 8): 84 ± 28 mg
- COLLAGEN ([1]; cortisone treated rats, 1.9 mg/injection, saline control 502 ± 145): 1279 ± 1001 μg HP/chamber
- level of all the biochemical parameters examined ([1]; cortisone treated rats, 0.1 ml of 19 mg/ml): increased

Compound: glycylL-(3-methyl)histidyl-L-lysine:copper(II) [G(3-Me)HL:Cu]
- ANGIOGENESIS [2, 6]: 8.9 ± 5.5 Units AP/chamber
- PROTEIN [2, 7]: 75 ± 9 mg/chamber
- WET WEIGHT [2, 8]: 125 ± 15 mg
- COLLAGEN [2, 9]: 1996 ± 288 μg HP/chamber

Compound: glycylL-histidyl-L-lysine octyl amide:copper(II) [GHL-Octyl Amide:Cu]
- ANGIOGENESIS ([2]; Table 7 part A, 2.6 mg/injection, saline control 5.3 ± 3.6): 6.7 ± 1.3 Units AP/chamber
- PROTEIN ([2]; Table 7 part A, 2.6 mg/injection, saline control 47 ± 20): 47 ± 6 mg/chamber
- WET WEIGHT ([2]; Table 7 part A, 2.6 mg/injection, saline control 85 ± 30): 101 ± 8 mg
- COLLAGEN ([2]; Table 7 part A, 2.6 mg/injection, saline control 335 ± 132): 1339 ± 265 μg HP/chamber

Compound: glycylL-histidyl-L-lysine octyl ester:copper(II) [GHL-Octyl Ester:Cu]
- ANGIOGENESIS ([2]; Table 7 part B, 2.6 mg/injection, saline control 4.5 ± 1.0): 12.4 ± 3.6 Units AP/chamber
- PROTEIN ([2]; Table 7 part B, 2.6 mg/injection, saline control 49 ± 9): 66 ± 8 mg/chamber
- WET WEIGHT ([2]; Table 7 part B, 2.6 mg/injection, saline control 75 ± 11): 106 ± 8 mg
- COLLAGEN ([2]; Table 7 part B, 2.6 mg/injection, saline control 703 ± 244): 1918 ± 565 μg HP/chamber

Compound: glycylL-histidyl-L-lysyl-L-tryptophan:copper(II) [GHLW:Cu]
- ANGIOGENESIS ([2]; Table 7 part A, 3.1 mg/injection, saline control 5.3 ± 3.6): 7.7 ± 1.6 Units AP/chamber
- WET WEIGHT ([2]; Table 7 part A, 3.1 mg/injection, saline control 85 ± 30): 94 ± 14 mg
- COLLAGEN ([2]; Table 7 part A, 3.1 mg/injection, saline control 335 ± 132): 1508 ± 128 μg HP/chamber

Compound: glycylL-histidyl-caprolactam:copper(II) [GHCap:Cu]
- ANGIOGENESIS [2, 6]: 10.7 ± 3.1 Units AP/chamber
- PROTEIN [2, 7]: 60 ± 11 mg/chamber
- WET WEIGHT [2, 8]: 98 ± 13 mg
- COLLAGEN [2, 9]: 1699 ± 365 μg HP/chamber

Compound: glycylglycyl-glycine:copper(II) [GGG:Cu]
- COLLAGEN [1, 10]: 829 ± 210 μg HP/chamber

Compound: histidylglycyl-L-lysine:copper(II) [HGL:Cu]
- ANGIOGENESIS [2, 6]: 10.4 ± 3.9 Units AP/chamber
- PROTEIN [2, 7]: 58 ± 9 mg/chamber
- WET WEIGHT [2, 8]: 104 ± 13 mg
- COLLAGEN [2, 9]: 2025 ± 456 μg HP/chamber

Compound: lysylL-histidyl-glycyl-L-valyl-L-phenylalanyl-L-valine:copper(II) [LHGVFV:Cu]
- ANGIOGENESIS ([2]; Table 8 part B, 3.8 mg/injection, saline control 5.3 ± 3.6): 8.0 ± 1.3 Units AP/chamber
- PROTEIN ([2]; Table 8 part B, 3.8 mg/injection, saline control 47 ± 20): 37 ± 9 mg/chamber
- WET WEIGHT ([2]; Table 8 part B, 3.8 mg/injection, saline control 85 ± 30): 95 ± 18 mg
- COLLAGEN ([2]; Table 8 part B, 3.8 mg/injection, saline control 335 ± 132): 1630 ± 275 μg HP/chamber
